# Experimental data published in patent publication US5605928A, “Antiemetic compositions” (Yissum Research Development Company of The Hebrew …, priority 1992, dated 1997).
# “Also recorded” adds a separate entry of the source. Where two headings read alike, the source gives them in different places.
# Legend:
# [1] = system: vomiting due to antineoplastic therapy; assay: Previous antiemetic treatment of patient 1 with Metoclopromide; type: in vivo, human; settings: patient 1, 0.3 mg/kg p.o. or i.v.
# [2] = system: vomiting due to antineoplastic therapy in children with various blood cancers; assay: Antiemetic trial of delta-8-THC in 8 children receiving antineoplastic therapy (prevention of vomiting, side effects); type: in vivo, human (children)
# Protocol: In a trial, with 8 children of 3 to 13 years age, with various blood cancers, treated with a variety of antineoplastic drugs, 18 mg/m^2, in edible oil, p.o. of delta-8-THC was given two hours before the antineoplastic drug, and repeated every 6 hours of 24 hours. […] So far these children have received Δ^8 -THC nearly 500 times (see Table).
# Eight children with various blood cancers were administered delta-8-THC at a dose of 18 mg/m^2 p.o. two hours before the start of the anticancer treatment. The drug was dissolved in corn or olive oil (6 mg/ml). The same dose was repeated every 6 hrs for 24 hrs. Whenever additional cycles of antineoplastic therapy were required, delta-8-THC was administered following the same time procedure described above. Children received delta-8-THC only during days when emetogenic drugs were administered.
# Established anticancer drug protocols were followed with all patients.
# (§1) A study on vomiting due to antineoplastic therapy was carried out with 8 patients. Chemotherapy protocols of the types indicated in the Table almost invariable cause intense vomiting, which starts about 2 hrs after the initiation of chemotherapy and gradually ends over a 24 hr period. In preliminary trials we tried to end the antiemetic therapy after the first or second dose of the cannabinoid, i.e. after 6 or 12 hrs. […] In one case (patient) delta-8-THC therapy initially was refused. The patient experienced debilitating vomiting for 24 hrs after the antineoplastic treatment. During the second treatment cycle (which took place after 8 days), at the patient's family request, delta-8-THC treatment was initiated.
# Our antiemetic protocol for cancer patients, to which we strictly adhere, consists of one dose of delta-8-THC (18 mg/m^2) 2 hours before chemotherapy, followed by the same dose every 6 hours for a total of 4 doses per day.
# [3] = Acute oral toxicity, single doses, observed for 7 days; type: in vivo; settings: rat, in vivo; Fischer rats, male, single oral dose, observed 7 days; read-out: LD50, males
# Fischer rats = assay: as above; type: in vivo; settings: extremely high oral doses, delta-8- vs delta-9-THC
# [4] = Acute oral toxicity, single doses; type: in vivo; settings: in vivo, single oral dose, read-out: LD50 (could not be determined; single oral doses up to this dose non lethal)
# Protocol: (§2) LD50 could not be determined in either rhesus monkeys or dogs as single oral doses of up to 9000 mg/kg of either delta-8- or delta-9-THC in dogs or monkeys were non lethal.
# dogs = assay: Acute oral toxicity, single doses; type: in vivo; settings: single oral doses up to 9000 mg/kg
# Protocol: as §2
# rhesus monkeys = assay: Acute oral toxicity, single doses; type: in vivo; settings: single oral doses up to 9000 mg/kg
# Protocol: as §2
# [5] = Stability towards chemicals and oxidation, compared with delta-9-THC; type: physicochemical; settings: compared with delta-9 isomer
# [6] = system: vomiting and nausea in cancer therapy; assay: Comparison of delta-8-THC with delta-9-THC for antiemetic use (effectiveness, side effects); type: in vivo, human; settings: compared with delta-9-THC
# [7] = system: vomiting due to antineoplastic therapy; assay: Preliminary trials ending the antiemetic therapy after first or second dose; type: in vivo, human; settings: therapy ended after first or second dose, i.e. after 6 or 12 hrs
# Protocol: as §1
# [8] = system: vomiting and nausea in chemotherapy patients; settings: cited from earlier work
# [9] = chemotherapy of cancer, treated patients
structure (smiles),measurement,setting,value
CCN(CC)CCNC(=O)c1cc(Cl)c(N)cc1OC [Metoclopromide],Prevention of vomiting,[1],failed to
CCCCCc1cc(O)c2c(c1)OC(C)(C)[C@@H]1CC=C(C)C[C@@H]21 [delta-8-THC],Prevention of vomiting,"[2]; 8 children, 18 mg/m^2 p.o. in edible oil 2 h before antineoplastic drug, repeated every 6 h for 24 h",completely prevented; also recorded: no emesis was noted; also recorded: prevention of vomiting was complete
same,Effect of antiemetic treatments: side effects per patient,"[2]; Table, individual child, 18 mg/m^2",no side effects; also recorded: slight irritability; also recorded: euphoria
same,Anxiety or hallucinogenic effects,"[2]; children, 18 mg/m^2 p.o.",No anxiety or hallucinogenic effects were noted
same,Side effects (overall),"[2]; children, 18 mg/m^2 p.o., every 6 h for 24 h",negligible side effects; also recorded: minor: some irritability as slight euphoria; also recorded: without the occurrence of major side effects
same,"Vomiting in patient, second treatment cycle","[2]; delta-8-THC initiated at second cycle after refusal in first cycle, 18 mg/m^2 p.o.",No vomiting occurred
same,LD50 at 168 h,[3],1980 mg/kg
same,Histopathological changes,Fischer rats,essentially the same
same,LD50,"[4]; dog, dogs",> 9000 mg/kg
same,LD50,"[4]; rhesus monkey, rhesus monkeys",> 9000 mg/kg
same,Histopathological alterations,dogs,did not occur
same,Histopathological alterations,rhesus monkeys,did not occur
same,Proneness to oxidation,[5],less prone to oxidation
same,Stability towards various chemicals,[5],considerably more stable
same,Effectiveness for the intended (antiemetic) use,[6],at least as effective
same,Side-effects,[6]; especially in pediatric medicine,considerably reduced side-effects
same,Vomiting after ending antiemetic therapy early,[7],Vomiting started in most cases
"CCCCCc1cc(O)c2c(c1)OC(C)(C)[C@@H]1CCC(C)=C[C@@H]21 [delta-9-THC, delta-9-tetrahydro-cannabinol, reference compound]",LD50 at 168 h,[3],1910 mg/kg
same,Histopathological changes,Fischer rats,essentially the same
same,LD50,"[4]; dog, dogs",> 9000 mg/kg
same,LD50,"[4]; rhesus monkey, rhesus monkeys",> 9000 mg/kg
same,Histopathological alterations,dogs,did not occur
same,Histopathological alterations,rhesus monkeys,did not occur
same,Effect in the remaining patients,"[8]; chemotherapy of cancer, the rest of treated patients",little or no effect
same,Patients in whom vomiting and nausea is prevented,[8]; [9],20 to 30 per cent
same,Patients in whom vomiting and nausea symptoms are reduced,[8]; [9],40 to 50 per cent
same,Pronounced side effects,"[8]; treated patients, pronounced with elderly patients","drowsiness, dizziness and in some cases--anxiety"
same,Side effects in younger patients,[8]; younger patients,mainly mood changes
